Data published in the NIST ThermoML archive (doi:10.1021/je060228n).
Numbers after ± are expanded uncertainties.

Tests used:
[1] = for surface tension liquid-gas: Drop weight; for mass density / speed of sound / viscosity: Liquid
[2] = refractive index (Na D-line) (dimensionless); details: 101.33 kPa, Liquid
[3] = xn = mol fraction of the nth substance listed; details: 101 kPa, Liquid
[4] = refractive index (Na D-line) (dimensionless); xn = mol fraction of the nth substance listed; details: 298.15 K, 101 kPa, Liquid

CCOS(=O)(=O)[O-].CCn1cc[n+](C)c1 [1-ethyl-3-methylimidazolium ethyl sulfate]
Details | refractive index, [2] | surface tension liquid-gas, [1] [mN/m]
288.15 K | 1.48197 ± 0.0013 | 47.91 ± 0.35
293.15 K | 1.48072 ± 0.0013 | 47.39 ± 0.35
298.15 K | 1.4794 ± 0.0013 | 46.96 ± 0.35
303.15 K | 1.47803 ± 0.0013 | 46.58 ± 0.34
308.15 K | 1.47669 ± 0.0013 | 46.23 ± 0.34
313.15 K | 1.47535 ± 0.0013 | 45.84 ± 0.34
318.15 K | 1.47397 ± 0.0013 | –
323.15 K | 1.47259 ± 0.0013 | –
328.15 K | 1.47124 ± 0.0013 | –
333.15 K | 1.46989 ± 0.0013 | –
338.15 K | 1.46851 ± 0.0013 | –
343.15 K | 1.46718 ± 0.0013 | –

[1], 101.33 kPa
Details | mass density [kg/m3] | speed of sound [m/s] | viscosity [mPa·s]
288.15 K | 1244.46 ± 1.3 | 1703.9 ± 13 | –
293.15 K | 1241 ± 1.3 | 1691.4 ± 13 | –
298.15 K | 1237.63 ± 1.3 | 1679 ± 13 | 97.58 ± 4.6
303.15 K | 1234.25 ± 1.3 | 1666.6 ± 13 | 76.67 ± 2.4
308.15 K | 1230.88 ± 1.3 | 1654 ± 13 | 61.71 ± 1.1
313.15 K | 1227.51 ± 1.3 | 1641.6 ± 13 | 50.01 ± 0.48
318.15 K | 1224.15 ± 1.3 | 1629.2 ± 13 | 41.37 ± 0.77
323.15 K | 1220.8 ± 1.2 | 1616.8 ± 12 | 34.46 ± 0.64
328.15 K | 1217.47 ± 1.2 | 1604.5 ± 12 | 29.18 ± 0.54
333.15 K | 1214.31 ± 1.2 | 1591.3 ± 12 | 24.96 ± 0.46
338.15 K | 1210.82 ± 1.2 | 1578.9 ± 12 | 21.45 ± 0.4
343.15 K | 1207.51 ± 1.2 | 1566.4 ± 12 | 18.72 ± 0.35

CCOS(=O)(=O)[O-].CCn1cc[n+](C)c1 [1-ethyl-3-methylimidazolium ethyl sulfate] + CCO
[3]
Details | mass density, 298.15 K [kg/m3] | mass density, 313.15 K [kg/m3] | mass density, 328.15 K [kg/m3] | speed of sound, 298.15 K [m/s] | speed of sound, 313.15 K [m/s] | speed of sound, 328.15 K [m/s] | viscosity, 298.15 K [mPa·s] | viscosity, 313.15 K [mPa·s] | viscosity, 328.15 K [mPa·s]
x2 = 0 | 1237.63 ± 1.3 | 1227.51 ± 1.3 | 1217.47 ± 1.2 | 1679 ± 13 | 1641.6 ± 13 | 1604.5 ± 12 | 97.58 ± 4.5 | 50.01 ± 0.52 | 29.18 ± 0.58
x2 = 0.0623 | 1228.9 ± 1.2 | 1218.87 ± 1.2 | 1208.77 ± 1.2 | 1669.8 ± 13 | 1633.6 ± 13 | 1594.8 ± 12 | 79.12 ± 2.6 | 42.18 ± 0.8 | 25.36 ± 0.49
x2 = 0.23 | 1201.26 ± 1.1 | 1191.17 ± 1 | 1181.01 ± 1 | 1626.6 ± 13 | 1590.1 ± 12 | 1551 ± 12 | 44.93 ± 0.81 | 26.19 ± 0.49 | 16.84 ± 0.32
x2 = 0.4113 | 1161.68 ± 0.88 | 1151.32 ± 0.85 | 1140.94 ± 0.81 | 1564 ± 12 | 1527.7 ± 12 | 1488.2 ± 12 | 22.96 ± 0.42 | 14.72 ± 0.28 | 10.14 ± 0.2
x2 = 0.5393 | 1123.63 ± 0.73 | 1113 ± 0.7 | 1102.3 ± 0.67 | 1506.5 ± 12 | 1459.1 ± 12 | 1431.1 ± 11 | 13.58 ± 0.26 | 8.577 ± 0.17 | 6.204 ± 0.13
x2 = 0.6788 | 1066.7 ± 0.52 | 1055.7 ± 0.49 | 1044.7 ± 0.46 | 1428.8 ± 11 | 1381 ± 11 | 1350.7 ± 11 | 7.224 ± 0.15 | 5.208 ± 0.12 | 3.934 ± 0.089
x2 = 0.7662 | 1017.9 ± 0.36 | 1006.6 ± 0.33 | 995.2 ± 0.33 | 1367.2 ± 11 | 1318.9 ± 11 | 1286.7 ± 10 | 4.598 ± 0.1 | 3.413 ± 0.077 | 2.642 ± 0.061
x2 = 0.8303 | 973 ± 0.39 | 961.3 ± 0.4 | 949.6 ± 0.46 | 1315.6 ± 11 | 1266.2 ± 10 | 1232.2 ± 10 | 3.178 ± 0.072 | 2.398 ± 0.055 | 1.874 ± 0.044
x2 = 0.9554 | 848.6 ± 0.73 | 836.2 ± 0.8 | 823.5 ± 0.8 | 1195.9 ± 9.9 | 1143.3 ± 9.6 | 1102.6 ± 9.3 | 1.573 ± 0.037 | 1.2 ± 0.029 | 0.941 ± 0.025
x2 = 0.964 | 837.4 ± 0.77 | 824.7 ± 0.8 | 812 ± 0.8 | 1186.2 ± 9.8 | 1132.7 ± 9.5 | 1091.4 ± 9.2 | 1.427 ± 0.034 | 1.095 ± 0.027 | 0.862 ± 0.023
x2 = 0.9863 | 806.1 ± 0.86 | 793.4 ± 0.9 | 780.3 ± 0.9 | 1160.7 ± 9.7 | 1106.2 ± 9.3 | 1063.1 ± 9.1 | 1.271 ± 0.031 | 0.971 ± 0.025 | 0.759 ± 0.022

[4]
Details | refractive index
x2 = 0 | 1.4794 ± 0.0014
x2 = 0.0623 | 1.47717 ± 0.0014
x2 = 0.23 | 1.47031 ± 0.0014
x2 = 0.4113 | 1.46017 ± 0.0014
x2 = 0.5393 | 1.45018 ± 0.0014
x2 = 0.6788 | 1.43532 ± 0.0014
x2 = 0.7662 | 1.42247 ± 0.0014
x2 = 0.8303 | 1.41052 ± 0.0014
x2 = 0.9554 | 1.37687 ± 0.0014
x2 = 0.964 | 1.37373 ± 0.0014
x2 = 0.9863 | 1.36514 ± 0.0014

CCOS(=O)(=O)[O-].CCn1cc[n+](C)c1 [1-ethyl-3-methylimidazolium ethyl sulfate] + O
[3]
Details | mass density, 298.15 K [kg/m3] | mass density, 313.15 K [kg/m3] | mass density, 328.15 K [kg/m3] | speed of sound, 298.15 K [m/s] | speed of sound, 313.15 K [m/s] | speed of sound, 328.15 K [m/s] | viscosity, 298.15 K [mPa·s] | viscosity, 313.15 K [mPa·s] | viscosity, 328.15 K [mPa·s]
x2 = 0 | 1237.63 ± 1.3 | 1227.51 ± 1.3 | 1217.47 ± 1.2 | 1679.1 ± 13 | 1641.6 ± 13 | 1604.5 ± 12 | 97.58 ± 4.5 | 50.01 ± 0.52 | 29.18 ± 0.58
x2 = 0.0715 | 1236.14 ± 1.2 | 1225.97 ± 1.2 | 1215.87 ± 1.2 | 1687 ± 13 | 1640.1 ± 13 | 1617.1 ± 12 | 82.01 ± 2.9 | 43.36 ± 0.82 | 25.8 ± 0.5
x2 = 0.2089 | 1232.72 ± 1.2 | 1222.53 ± 1.1 | 1212.4 ± 1.1 | 1696.7 ± 13 | 1660.8 ± 13 | 1622.1 ± 13 | 57.84 ± 0.73 | 32.09 ± 0.6 | 19.82 ± 0.38
x2 = 0.3227 | 1229 ± 1.1 | 1218.87 ± 1.1 | 1208.82 ± 1.1 | 1707.2 ± 13 | 1671 ± 13 | 1631.7 ± 13 | 42.89 ± 0.76 | 24.76 ± 0.46 | 15.8 ± 0.3
x2 = 0.5041 | 1220 ± 1 | 1209.82 ± 0.99 | 1199.54 ± 0.96 | 1729 ± 13 | 1692.6 ± 13 | 1652.9 ± 13 | 24.74 ± 0.44 | 15.11 ± 0.29 | 10.02 ± 0.2
x2 = 0.5975 | 1212.9 ± 1 | 1202.43 ± 0.94 | 1192.02 ± 0.91 | 1741.6 ± 13 | 1703.9 ± 13 | 1665.9 ± 13 | 17.52 ± 0.32 | 10.98 ± 0.21 | 7.45 ± 0.15
x2 = 0.7441 | 1192.2 ± 0.9 | 1181.55 ± 0.85 | 1170.8 ± 0.8 | 1773 ± 14 | 1734.5 ± 13 | 1695.3 ± 13 | 10.58 ± 0.2 | 6.715 ± 0.14 | 4.622 ± 0.11
x2 = 0.854 | 1159.2 ± 0.8 | 1146.19 ± 0.72 | 1135.3 ± 0.7 | 1792.6 ± 14 | 1749.2 ± 13 | 1704.3 ± 13 | 5.848 ± 0.13 | 3.818 ± 0.087 | 2.596 ± 0.06
x2 = 0.9506 | 1084.4 ± 0.5 | 1076.1 ± 0.49 | 1066.9 ± 0.5 | 1709.2 ± 13 | 1693.1 ± 13 | 1668.1 ± 13 | 2.316 ± 0.054 | 1.608 ± 0.038 | 1.189 ± 0.029

[4]
Details | refractive index
x2 = 0 | 1.4794 ± 0.0014
x2 = 0.0715 | 1.47827 ± 0.0014
x2 = 0.2089 | 1.476 ± 0.0014
x2 = 0.3227 | 1.47344 ± 0.0014
x2 = 0.5041 | 1.46726 ± 0.0014
x2 = 0.5975 | 1.46243 ± 0.0014
x2 = 0.7441 | 1.44916 ± 0.0014
x2 = 0.854 | 1.42825 ± 0.0014
x2 = 0.9506 | 1.38383 ± 0.0014

CCO [ethanol]
[1], 101 kPa
Details | mass density [kg/m3] | speed of sound [m/s] | viscosity [mPa·s]
298.15 K | 785.46 ± 0.92 | 1146.3 ± 9.6 | 1.082 ± 0.027
313.15 K | 772 ± 1 | 1092.8 ± 9.3 | 0.827 ± 0.023
328.15 K | 758.6 ± 1 | 1043.2 ± 9 | 0.641 ± 0.02

Details | refractive index
[2], 298.15 K | 1.36023 ± 0.0014

CCO [ethanol] + CCOS(=O)(=O)[O-].CCn1cc[n+](C)c1
[3], x1 = 1
Details | mass density [kg/m3] | speed of sound [m/s] | viscosity [mPa·s]
298.15 K | 785.46 ± 0.92 | 1146.3 ± 9.6 | 1.082 ± 0.027
313.15 K | 772 ± 1 | 1092.8 ± 9.3 | 0.827 ± 0.023
328.15 K | 758.6 ± 1 | 1043.2 ± 9 | 0.641 ± 0.02

Details | refractive index
[4], x1 = 1 | 1.36023 ± 0.0014

O [water] + CCOS(=O)(=O)[O-].CCn1cc[n+](C)c1
[3], x1 = 1
Details | mass density [kg/m3] | speed of sound [m/s] | viscosity [mPa·s]
298.15 K | – | – | 0.89 ± 0.024
313.15 K | – | – | 0.653 ± 0.02
328.15 K | 985.7 ± 0.3 | 1545.4 ± 12 | 0.504 ± 0.018

Details | refractive index
[4], x1 = 1 | 1.33251 ± 0.0014
